Source: patent US20250228832A1, “METHODS FOR TREATING DISORDERS AMELIORATED BY MUSCARINIC RECEPTOR ACTIVATION” (KARUNA THERAPEUTICS, INC., priority 2022, published 2025)
Like-named read-outs stand apart in the source and are kept apart here. Values belong to the compound of their own block, whether it stands above or below them.

Assays:
human M3 receptor = molecular target: T1, human M3 receptor (Homo sapiens, UniProt P20309); experiment: HTRF IP-One curve shift assay, M3; format: cell-based
T1 construct: expressed in transfected cells
T1 sequence (P20309 whole entry): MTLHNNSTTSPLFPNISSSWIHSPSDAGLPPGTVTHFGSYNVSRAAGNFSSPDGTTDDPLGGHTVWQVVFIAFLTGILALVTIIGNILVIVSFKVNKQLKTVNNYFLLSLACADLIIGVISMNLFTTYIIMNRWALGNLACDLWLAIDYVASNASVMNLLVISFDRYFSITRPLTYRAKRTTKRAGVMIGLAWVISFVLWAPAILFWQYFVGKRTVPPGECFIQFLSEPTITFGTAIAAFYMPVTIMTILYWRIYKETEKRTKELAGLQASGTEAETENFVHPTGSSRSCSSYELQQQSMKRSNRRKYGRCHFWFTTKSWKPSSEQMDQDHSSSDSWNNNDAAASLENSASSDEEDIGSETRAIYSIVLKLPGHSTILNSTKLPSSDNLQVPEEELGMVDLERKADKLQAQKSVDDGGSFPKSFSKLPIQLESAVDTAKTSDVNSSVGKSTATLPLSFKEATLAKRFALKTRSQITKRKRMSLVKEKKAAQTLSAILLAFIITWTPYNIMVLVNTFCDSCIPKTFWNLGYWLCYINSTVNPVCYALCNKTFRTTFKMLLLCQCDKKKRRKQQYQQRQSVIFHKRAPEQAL
Protocol: (§1) HTRF IP-One assays were performed using frozen cell aliquots prepared from CHO-K1 cell lines stably expressing human M1, M3, or M5 receptors. Cells were frozen following typical cell freezing protocols. […] Dissociated cells were quenched in full media and collected by centrifugation at 290×g for 5 min. […] 1 mL aliquots of cells were dispensed into cryovial tubes and frozen in a controlled rate cryo-freezer container at −80° C. Cells were stored at −80° C. (or in liquid nitrogen if stored for at least six months) until the day of the assay.
(§2) On the day before the assay, frozen cells were rapidly thawed in a 37° C. water bath, brought up in 20 mL of full media, and collected via centrifugation at 290×g for 5 min. […] Next, […] of cells (10,000 cells/well) were dispensed into 384-well coming plates in triplicate. Cells were incubated overnight in a 37° C., 5% CO2 cell incubator.
(§3) Then, 2 μL of test compounds were added to the cells and incubated for 10 min at 37° C. in a 5% CO2 cell incubator. Next, 2 μL of diluted agonists serially diluted in assay buffer at 7× final assay concentration was added to assay plates. Finally, assay plates were incubated for two hours at 37° C. in a 5% CO2 cell incubator.
(§4) Six μL of IP-1 detection reagents (IP-One Gq HTRF kit, Cisbio Cat #62IPAPEJ) were dispensed to the cells. First, the plates were incubated for two hours at room temperature (IP-One detection reagents were made according to Cisbio protocol). Then, plates were read on an Envision plate reader following the Cisbio guidelines.
(§5) Raw data for all assays was transmitted directly from plate readers into the Beacon database for processing. All assay plates contained positive and negative control wells for data normalization and scaling. […] All control wells contained DMSO at a final assay concentration that matched the test compound wells.
(§6) Counts from the standard curve wells were used to generate a sigmoidal standard curve, which was used to transform the raw counts from each well on the plate (scaling control wells and compound wells) into a pmol/well IP1 value.

human M5 receptor = molecular target: T2, human M5 receptor (Homo sapiens, UniProt P08912); experiment: HTRF IP-One curve shift assay, M5; format: cell-based
T2 construct: expressed in transfected cells
T2 sequence (P08912 1-532): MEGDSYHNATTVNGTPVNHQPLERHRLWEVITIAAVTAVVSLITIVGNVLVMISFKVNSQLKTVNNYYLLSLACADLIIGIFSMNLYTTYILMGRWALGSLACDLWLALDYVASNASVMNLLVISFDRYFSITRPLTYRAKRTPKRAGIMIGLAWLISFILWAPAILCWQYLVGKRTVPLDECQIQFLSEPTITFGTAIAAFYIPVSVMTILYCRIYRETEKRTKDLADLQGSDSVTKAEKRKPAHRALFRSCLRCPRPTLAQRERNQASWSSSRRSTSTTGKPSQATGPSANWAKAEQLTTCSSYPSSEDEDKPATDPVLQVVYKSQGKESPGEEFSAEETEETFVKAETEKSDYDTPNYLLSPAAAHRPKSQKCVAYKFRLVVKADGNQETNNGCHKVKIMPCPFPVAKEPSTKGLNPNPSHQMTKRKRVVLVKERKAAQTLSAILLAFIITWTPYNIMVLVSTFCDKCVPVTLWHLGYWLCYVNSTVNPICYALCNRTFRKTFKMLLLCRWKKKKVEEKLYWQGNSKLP
Protocol: as §1, §2, §3, §4, §5, §6

[1] = Emraclidine concentration 41.2 nM, read-out: Emax
[2] = Emraclidine concentration 123 nM, read-out: Emax
[3] = Emraclidine concentration 370 nM
[4] = Emraclidine concentration 1110 nM, read-out: Emax
[5] = Emraclidine concentration 3330 nM, read-out: Emax
[6] = MK-4710 concentration 41.2 nM, read-out: Emax
[7] = MK-4710 concentration 123 nM, read-out: Emax
[8] = MK-4710 concentration 1110 nM, read-out: Emax
[9] = MK-4710 concentration 3330 nM, read-out: Emax
[10] = M5, Emraclidine concentration 0 nM
[11] = M5, Emraclidine concentration 41.2 nM, read-out: Emax
[12] = M5, Emraclidine concentration 123 nM, read-out: Emax
[13] = M5, Emraclidine concentration 370 nM, read-out: Emax
[14] = M5, Emraclidine concentration 1110 nM, read-out: Emax
[15] = M5, Emraclidine concentration 3330 nM, read-out: Emax
[16] = M5, Emraclidine concentration […], read-out: Emax
[17] = M5, MK-4710 concentration 41.2 nM, read-out: Emax
[18] = M5, MK-4710 concentration 123 nM, read-out: Emax
[19] = M5, MK-4710 concentration 370 nM, read-out: Emax
[20] = M5, MK-4710 concentration 1110 nM, read-out: Emax
[21] = M5, MK-4710 concentration 3330 nM, read-out: Emax

EC50 (human M3 receptor; Emraclidine concentration 0 nM): 24.4 nM
Emax (human M3 receptor; Emraclidine concentration 0 nM): 42.7%
Emax (human M3 receptor; [1]): 45.3%
Emax (human M3 receptor; [2]): 50.2%
Emax at […] (human M3 receptor; [3]): 52.1%
Emax (human M3 receptor; [4]): 54.8%
Emax (human M3 receptor; [5]): 59.6%
Emax at […] (human M3 receptor; Emraclidine concentration […]): 43%
α (cooperativity, affinity shift) (human M3 receptor; M4 PAM Emraclidine): 1.0
β (cooperativity, efficacy shift) (human M3 receptor; M4 PAM Emraclidine): 2.8
τ (agonist pharmacology) (human M3 receptor; M4 PAM Emraclidine): 0.0
α (cooperativity, affinity shift) (human M3 receptor; M4 PAM MK-4710): 7.7
β (cooperativity, efficacy shift) (human M3 receptor; M4 PAM MK-4710): 1.1
τ (agonist pharmacology) (human M3 receptor; M4 PAM MK-4710): 0.0
EC50 (human M3 receptor; MK-4710 concentration 0 nM): 33.8 nM
Emax (human M3 receptor; MK-4710 concentration 0 nM): 46.7%
Emax (human M3 receptor; [6]): 49.5%
Emax (human M3 receptor; [7]): 48.3%
Emax at […] (human M3 receptor; MK-4710 concentration 370 nM): 53.4%
Emax (human M3 receptor; [8]): 51.1%
Emax (human M3 receptor; [9]): 64.4%
Emax at […] (human M3 receptor; MK-4710 concentration […]): 45.6%
EC50 (human M5 receptor; [10]): 121 nM
Emax (human M5 receptor; [10]): 41.68%
EC50 (human M5 receptor; M5, Emraclidine concentration 41.2 nM): 110 nM
Emax (human M5 receptor; [11]): 45.4%
EC50 (human M5 receptor; M5, Emraclidine concentration 123 nM): 118 nM
Emax (human M5 receptor; [12]): 62.7%
EC50 (human M5 receptor; M5, Emraclidine concentration 370 nM): 161 nM
Emax at […] (human M5 receptor; [13]): 62.4%
EC50 (human M5 receptor; M5, Emraclidine concentration 1110 nM): 243 nM
Emax (human M5 receptor; [14]): 69.3%
EC50 (human M5 receptor; M5, Emraclidine concentration 3330 nM): 153 nM
Emax (human M5 receptor; [15]): 72%
EC50 (human M5 receptor; M5, Emraclidine concentration […]): 111 nM
Emax at […] (human M5 receptor; [16]): 44.1%
α (cooperativity, affinity shift) (human M5 receptor; M5, M4 PAM Emraclidine): 1.0
β (cooperativity, efficacy shift) (human M5 receptor; M5, M4 PAM Emraclidine): 4.5
τ (agonist pharmacology) (human M5 receptor; M5, M4 PAM Emraclidine): 0.1
α (cooperativity, affinity shift) (human M5 receptor; M5, M4 PAM MK-4710): 2.2
β (cooperativity, efficacy shift) (human M5 receptor; M5, M4 PAM MK-4710): 1.9
τ (agonist pharmacology) (human M5 receptor; M5, M4 PAM MK-4710): 0.0
EC50 (human M5 receptor; M5, MK-4710 concentration 0 nM): 168 nM
Emax (human M5 receptor; M5, MK-4710 concentration 0 nM): 53.95%
Emax (human M5 receptor; [17]): 62.5%
Emax (human M5 receptor; [18]): 65.7%
Emax at […] (human M5 receptor; [19]): 68%
Emax (human M5 receptor; [20]): 69.6%
Emax (human M5 receptor; [21]): 82.2%
Emax at […] (human M5 receptor; M5, MK-4710 concentration […], read-out: Emax): 54.9%
Compound: CCCCCOc1nsnc1C1=CCCCN1C [KTX-517, 3-(1-methyl-1,4,5,6-tetrahydropyridin-2-yl)-4-(pentyloxy)-1,2,5-thiadiazole]

Compound: CCCCCCOc1nsnc1C1=CCCN(C)C1 [xanomeline, reference compound]
EC50 (human M3 receptor; Emraclidine concentration 0 nM): 155 nM
Emax (human M3 receptor; Emraclidine concentration 0 nM): 77.3%
Emax (human M3 receptor; [1]): 81.9%
Emax (human M3 receptor; [2]): 85.7%
Emax at […] (human M3 receptor; [3]): 91.6%
Emax (human M3 receptor; [4]): 89.1%
Emax (human M3 receptor; [5]): 80.3%
Emax at […] (human M3 receptor; Emraclidine concentration […]): 74.5%
τ (agonist pharmacology) (human M3 receptor; M4 PAM Emraclidine): 0.1
τ (agonist pharmacology) (human M3 receptor; M4 PAM MK-4710): 0.1
EC50 (human M3 receptor; MK-4710 concentration 0 nM): 147 nM
Emax (human M3 receptor; MK-4710 concentration 0 nM): 84.2%
Emax (human M3 receptor; [6]): 94.3%
Emax (human M3 receptor; [7]): 90.3%
Emax at […] (human M3 receptor; MK-4710 concentration 370 nM): 88.9%
Emax (human M3 receptor; [8]): 81%
Emax (human M3 receptor; [9]): 81.8%
Emax at […] (human M3 receptor; MK-4710 concentration […]): 81.5%
Emax at […] (human M5 receptor): 80%
Emax (human M5 receptor; [10]): 81.14%
Emax (human M5 receptor; [11]): 78.5%
Emax (human M5 receptor; [12]): 84.2%
Emax at […] (human M5 receptor; [13]): 89%
Emax (human M5 receptor; [14]): 81.9%
Emax (human M5 receptor; [15]): 79.5%
Emax at […] (human M5 receptor; [16]): 79.4%
τ (agonist pharmacology) (human M5 receptor; M5, M4 PAM Emraclidine): 0.1
τ (agonist pharmacology) (human M5 receptor; M5, M4 PAM MK-4710): 0.0
Emax (human M5 receptor; M5, MK-4710 concentration 0 nM): 77.91%
Emax (human M5 receptor; [17]): 87%
Emax (human M5 receptor; [18]): 86.9%
Emax at […] (human M5 receptor; [19]): 92.9%
Emax (human M5 receptor; [20]): 78.6%
Emax (human M5 receptor; [21]): 83%
